Measured values taken from ChEMBL document CHEMBL3507680, “University of Dundee, Gates Library screen for HepG2 cell viability”.

Assay: Human HepG2 cell viability assay in 384 well format
Type: toxicity, cell-based
Parameters: dose 125 nL, time 70.5 hour; concentration not given beside the values
Conditions: HepG2 cells, read-out: Inhibition

SMILES	cytotoxicity at 70.5 h [%]
CC(C)N1CCCCC1CCn1cnc2cc(C(F)(F)F)ccc2c1=O (centres undefined)	-12.9
CN1CCN(c2ccc(Cl)cc2NC(=O)c2ccco2)CC1	12.6
Cn1ncc2c1CCCC2NCc1cccc(F)c1 (centres undefined)	-14.3
CC(O)CN1CCN(C(=O)c2cnn(-c3ccccc3F)c2)CC1 (centres undefined)	-6.92
O=C(Nc1ncc[nH]1)c1cc(-c2cccnc2)n[nH]1	-2.08
O=C(NCCc1ccccn1)C1CC(=O)N(CC(F)(F)F)C1 (centres undefined)	-2.42
CCc1cnc(CNC(=O)N2CCCC(c3ncc[nH]3)C2)s1 (centres undefined)	-4.75
CC(NC(=O)CCNC(=O)c1ccoc1)c1ccccc1 (centres undefined)	-7.29
CC(C)n1ccnc1CN1CCCN(C(=O)CN(C)C2CC2)CC1	-5.01
Cc1cnn(CC2CN(Cc3nc(-c4ccco4)no3)CCO2)c1 (centres undefined)	-0.209
CCS(=O)(=O)CC(=O)Nc1cc(-c2cccc(F)c2F)n[nH]1	-9.86
CN(C)[C@@H]1CN(C(=O)COc2cccc(F)c2)C[C@H]1O	-9.79
CC(C)(C)NC(=O)c1ccn(COc2ccccc2Cl)n1	-5.39
CN1CCC(C)(CN(C)C(=O)c2ccc(CCC(C)(C)O)cc2)C1 (centres undefined)	-1.78
CS(=O)(=O)c1snnc1C1CCCN(Cc2ccncc2)C1 (centres undefined)	-11.9
COCCn1c(=O)n(Cc2cccc(F)c2F)c2cc(C(=O)O)ccc21	18.8
COCCNC(=O)Cn1ccc2sc(C)cc2c1=O	-5.23
CC(C)CN1C(=O)C2(CCN(Cc3ccoc3)C2)c2ccccc21 (centres undefined)	-14.2
Cc1cccc(NC(=O)Cc2cnc3n(C)c(=O)[nH]c(=O)n23)c1	22.4
CC1CN(C(=O)CN(Cc2ccco2)Cc2cccs2)CCO1 (centres undefined)	3
Cc1cc(C)c2c(c1)C(NC(=O)CSCc1ccncc1)CCO2 (centres undefined)	-7.37
O=c1[nH]c2ccccc2cc1CN(Cc1ccccn1)CC1CCCO1 (centres undefined)	-4.2
CCCN(c1ccccc1C(=O)O)S(=O)(=O)c1ccc2ccccc2c1	-6.16

SMILES	cytotoxicity at 70.5 h [%]
CC(C)n1cc(CN2CCCN(C(=O)c3cc(Cl)c[nH]3)CC2)cn1	1.03
COc1ccc(-c2cc3nc(CCNC(=O)CN(C)C)nn3cn2)cc1	-1.8
CCc1cc(N[C@H]2CCC[C@H]2CO)n2nc(C)c(C)c2n1	-2.92
CCOc1ccc(-c2ccnc(C3CC3)n2)cc1C(=O)O	-3.39
Cc1ccnc(N2CCN(Cc3ccccc3)CC(O)C2)c1 (centres undefined)	-3.12
CCOc1ccc(-c2nc(C(=O)NCC3CCOC3)cs2)cc1 (centres undefined)	-7.97
Cc1ccc2c(c1)nc1n2[C@@H](CNC(=O)c2cccnc2)COC1	-4.19
Cc1noc(C)c1CN1CCCC2(CCN(C(=O)NC3CC3)C2)C1 (centres undefined)	1.02
CCCn1nc(C(=O)NCc2nnc3n2CCC3)ccc1=O	22.5
Cn1cc(CN2C[C@@H]3COC[C@]3(C(=O)NCCc3ccccc3)C2)cn1	-8.15
CC(=O)N1N=C(c2ccccc2)OC1C(=O)NCCOc1ccccc1 (centres undefined)	-3.08
C=C(C)COc1cccc(C(=O)N(C)C(C)c2ccncn2)c1 (centres undefined)	-7.56
CCc1cc(CNCc2ccccc2N(C)C2CCN(C)CC2)on1	-1.28
CCC[C@H]1CN(S(C)(=O)=O)C[C@@H]1NC(=O)CCOCC	-2.88
Cc1csc(N2CCN(Cc3nccn3C)CC2C)n1 (centres undefined)	-16.3
O=C(CCN1CCCCC1c1cc2ccccc2[nH]1)N1CCOCC1 (centres undefined)	8.08
OCC1(NCc2cnc(-c3cccs3)s2)CCOCC1	-6.15
COc1cccc2c(=O)n(CCN3CCNCC3)cnc12	-0.783
CC(C)CN1CCCC1c1ccc(C(=O)Nc2ccc3[nH]nnc3c2)s1 (centres undefined)	-0.75
CC(C)Oc1ccc(CN2CCC(Cc3nnc(CO)n3C)CC2)cc1	-0.794
O=C(C1COCCO1)N1CCN(CC(F)(F)F)c2ccccc21 (centres undefined)	-1.12
NC(=O)c1cn[nH]c1C1CCCN1C(=O)c1cnccn1 (centres undefined)	-10.1
COc1ccc(C(C)NC(=O)N2CCNC(=O)CC2)cc1F (centres undefined)	-1.24

SMILES	cytotoxicity at 70.5 h [%]
CCc1ncncc1C(=O)NCCNC(=O)c1ccc(C)c(F)c1	-8.42
Cc1c(CN2CCCC2(C)C(=O)N2CCOCC2)cnn1C (centres undefined)	-7.03
CCN(CC)S(=O)(=O)N1CCCC(c2ncc3c(n2)CCN(C)C3)C1 (centres undefined)	23.8
COc1cc(C(=O)NS(=O)(=O)c2cccc(C#N)c2)ccc1C	-7.93
Cc1nc(C2CCCN(C(=O)C(C)(C)n3cc(Cl)cn3)C2)no1 (centres undefined)	-13.5
Cc1ccc(CN2CCC3(CC2)CN(C(=O)c2cnccn2)CCO3)o1	-6.5
Cn1ccc(CN2CCC(NC(=O)Cc3ccccc3)CC2)cc1=O	2.35
CC(C)N(C)S(=O)(=O)N(C)Cc1ccc2c(c1)OCCO2	4.58
CCc1nc(CC(=O)NCC(Cc2ccc(F)cc2)C(N)=O)cs1 (centres undefined)	29.6
CCN(CC)C(=O)Cn1cc(C(=O)NCCc2nc(C)c(C)s2)nn1	-2.44
CN(Cc1csc(-c2cccs2)n1)Cc1ncccc1C(=O)O	-12.2
Cc1cc(C)c(CNC(=O)NCc2cc(F)cc(F)c2)c(=O)[nH]1	-3.54
CCNC(=O)NCC(CC)(OC)c1ccccc1 (centres undefined)	-5.55
O=C(NCCc1ccn(-c2ccccc2)n1)N1CCCC(CO)C1 (centres undefined)	1.65
CCC(NC(=O)CCNC(=O)c1ccccc1F)c1cc(C)ccn1 (centres undefined)	-0.798
Cc1ncsc1CCC(=O)N1CCN(CCn2cncn2)CC1	-10.7
COCCn1cncc1CN1CCCC(C(=O)Cc2ccccc2)C1 (centres undefined)	0.198
CC(Cn1cncn1)NC(=O)N1CC2(CCCC2)c2ccccc21 (centres undefined)	-1.39
CCC(CNC(=O)C1CCC1)(OC)c1ccccc1 (centres undefined)	-1.73
CC(C)CNC(=O)[C@H]1CCS(=O)(=O)[C@@H]2CN(c3ncccn3)C[C@H]12	-10.6
CC(C)(O)CN1CCN(C(=O)c2cccc3[nH]ncc23)CC1	-1.27
CCCc1nc(C)c(C(=O)NC2CCN(CC(N)=O)CC2)s1	-11.5
C[S+]([O-])c1nncn1CC(=O)c1ccc(Cl)c(Cl)c1 (centres undefined)	-3.69

SMILES	cytotoxicity at 70.5 h [%]
CC(C)C(NC(=O)C1CC1)c1cc(O)nc(-c2cccnc2)n1 (centres undefined)	-0.322
Cc1cccc(N2CCN(C(=O)CCc3c(C)noc3Cl)CC2)c1	-8.69
O=C(OC1CCC1)c1ncccc1C(F)(F)F	-3.86
Cc1cc(C)cc(CN2CCN(C(=O)CCc3n[nH]c(C)n3)CC2=O)c1	22.5
COCCN1CCO[C@H]2CCN(C(=O)c3ccnnc3)CC[C@@H]21	-8.98
CN1N=C(C(=O)N2CCN(c3ncccc3Cl)CC2)CCC1=O	12
CNc1nc(C(=O)N2CCN(c3cc(C)nc(C)c3)CC2)cs1	-9.69
CCS(=O)(=O)N1CCC(C(=O)NC(Cc2ccsc2)c2nccs2)CC1 (centres undefined)	18.9
Cc1ncsc1-c1nnc(C2CCN(Cc3ccccc3F)CC2)o1	-0.587
CCN1CCCC(C)(C(=O)NCc2nccn2Cc2ccccc2)C1 (centres undefined)	0.597
Cn1c(-c2cccs2)nn(CCNS(=O)(=O)c2ccccc2Cl)c1=O	-1.9
COc1ccccc1CN(C)c1nc2c(cnn2C)c(=O)[nH]1	-10.3
CC(C)CCc1cc(C(=O)O)nc2[nH]c(=O)[nH]c(=O)c12	-15.5
CCc1ncnc2c1CCN(C(=O)c1cccn1C)CC2	20.2
CN(C)c1ncccc1CNC(=O)c1csc(Br)c1	13.3
COCCCn1ccc(NC(=O)NCc2cccc(N(C)C)c2)n1	-5.16
CCOC(=O)[C@@H]1[C@@H](c2ccccc2)CN2CCNC[C@H]12	-11
COC1(CNS(=O)(=O)c2ccccc2Br)CCSC1 (centres undefined)	-4.04
COc1ccc(CCn2ccnc2-c2cc3n(n2)CCCNC3)cc1	-10.7
Cc1ccccc1CN(Cc1ccncc1)CC(C)C	-4.55
CN(C(=O)c1ccncc1F)c1ccccc1S(C)(=O)=O	-1.8
Cc1noc(C)c1-c1cnc(CC2CCN(C(=O)c3cc[nH]n3)C2)cn1 (centres undefined)	-12
CCN1CCC2(CC1)CN(C(C)=O)c1ccc(C)cc12	-7.76

SMILES	cytotoxicity at 70.5 h [%]
CN(C)C(=O)N1CCN(c2ccc3ccc(C(=O)NC4CC4)cn23)CC1	11.8
COc1cccc(Cl)c1C(C(=O)O)N1CCC(Cn2cccn2)CC1 (centres undefined)	17.9
CC(C)(C)c1noc(-c2ccnc(-n3cnc(C(=O)O)c3)c2)n1	-4.5
CCc1cc(NCCc2cc(F)cc(F)c2)n2nccc2n1	-2.57
COC[C@]12COC[C@H]1CN(Cc1ccc3c(c1)OCO3)C2	-6.87
COc1ccc(CC(=O)N2CCCC2Cn2cccn2)cc1F (centres undefined)	-9.94
CCOCc1nc2c(c(NC(CC)c3cccnc3)n1)CCNCC2 (centres undefined)	-3.13
CC(C)Nc1ccc2nc(C3CCN(C(C)C)CC3)nn2c1	-2.64
COCCN(Cc1ccccn1)Cc1sccc1C	-10.3
Cn1nnc2c1CCN(S(C)(=O)=O)C2COCc1ccccc1 (centres undefined)	13.6
CS(=O)(=O)CCSCc1cc(F)cc2cccnc12	-16.7
Cc1cnn(C2CCCN(C(=O)c3c(C)oc(C)c3C)C2)c1 (centres undefined)	-0.501
CN1CCC2(CC1)CN(C(=O)c1ccncc1)Cc1ccccc12	-2.21
O=C(C1CCOCC1)N1CC[C@@H](O)[C@@H]1Cc1ccncc1	-0.548
Cc1cc(C2CCCN2Cc2ccn(C)c(=O)c2)no1 (centres undefined)	-1.78
O=C(NCc1ccccc1)[C@@H]1Cc2[nH]cnc2CN1CC1CC1	-3.43
Cc1noc(C)c1CN(C)C(=O)NC(C)Cc1ccco1 (centres undefined)	-1.49
CC(=O)N1C[C@@H](F)[C@@H](OCc2nc3cc(C)c(C)cc3[nH]2)C1	-0.883
CCOc1ccnc(N2CCN(C(=O)c3cn[nH]c3CC)CC2)n1	-3.19
O=C(Cc1c[nH]c(=O)[nH]c1=O)N1CCC2(CCC(=O)N(C3CC3)C2)CC1	0.183
C1CCN(Cc2nnn3c2CN(CC2CC2)CCC3)C1	0.89
COCCc1noc(-c2cn(Cc3ccccc3C)nn2)n1	-4.41
